Data set [1] concerns influenza antigen (Influenza APR834). The data set is classed as in vivo, Balb/c mice. The conditions noted are these: for Trend in immune response as indicated by ELISA signal (1:123 serum screening dilution): mice.
Another data set deals with swine skin. The conditions noted are these: for Erythema Draize scores (tolerability): Tween 80 5%, Deoxycholate 0.1%, D-sorbitol 5%, Lutrol 15%, without antigen, 200 ul per injection, 31 gauge 1.5 mm, 1 h and 24 h readings; for tolerated amphotericin per dose / tolerated total amphotericin per dose: Draize score 1 hour post administration.
The test system of the next data set is guinea pig skin. The data set is described as follows: Guinea pig erythema Draize scoring after ID delivery of excipients. The class given is in vivo, Hartley guinea pigs. The conditions noted are these: Tween 80 5%, Deoxycholate 0.1%, D-sorbitol 5%, Lutrol 15%; without antigen, 50 ul per injection, 34 gauge 1.0 mm; immediate, 1 h and 24 h readings. The source says: The methods of the invention provide fundamental principles and guidelines whereby optimum parameters may be determined for delivering immunogenic compositions to the dermal compartment (including epidermal and intradermal compartments) wherein the excipients have optimum adjuvant properties and the formulations of the invention have enhanced efficacy in comparison to when the same formulation is delivered using conventional modes of delivery, including intramuscular and subcutaneous delivery. The invention provides methods wherein the formulations of the invention have been screened to have optimum concentration ranges for delivery to the optimum depth of the intradermal compartment such that they have adjuvant properties, resulting in one or more of the following properties: minimal to no skin irritation as determined and assessed using conventional modes of analysis of skin reactions using visual methods such as Draize scoring (For a typical draize scoring analysis see table below); minimal to no hemolysis as determined using standard methods known in the art, and enhanced immune response as measured by enhanced seroconversion and/or enhanced antibody titers.
Erythema Draize scores for various excipients were determined using procedures described in Section 5.4, above. In one study, Tween™ 80 (5%), Deoxycholate (0.1%), D-sorbitol (5%) or Lutrol™ (15%) was administered (50 μl per injection) without the antigen to Hartley guinea pigs using 34 gauge, 1.0 mm needles. […] Deeper administrations will be necessary for deoycholate to be used reliably at this concentration. From left to right, the reading immediately after administration, the one-hour reading and the 24-hour reading.

In data set [2] the test system is trivalent test antigen (New Calcdonia, Panama and B-Hong Kong). Also on record: species or system Hartley Guinea Pigs. The conditions noted are these: guinea pig, in vivo.
[3] abbreviates: Yorkshire swine, 1.5 mm depth, listed as Amp-B.

These results are taken from patent publication US20090304744A1, “METHODS OF ENHANCING IMMUNE RESPONSE IN THE INTRADERMAL COMPARTMENT AND COMPOUNDS USEFUL THEREOF” (priority 2003, published 2009).

Read-outs that look alike come from different tables or passages of the source.

Take Triton X-100: the “Trend in immune response as indicated by ELISA signal (1:123 serum screening dilution)” value (“Trend in immune response as indicated” below) in data set [1] (excipient 0.0001% w/v with FLUZONE, ID) came out at 1.321; in data set [1] (excipient 0.0009% w/v with FLUZONE, ID), 1.214.
Regarding `OC[C@@H](O)[C@@H](O)[C@H](O)[C@@H](O)CO` [D-sorbitol], the “serum titer enhancement vs equal amount of Fluzone without sorbitol” value in data set [1] (Fluzone supplemented with sorbitol, ID, six point ELISA) is given as 3 ×. In addition, the “Trend in immune response as indicated” value is listed as 1.062 in data set [1] (excipient 2% w/v with FLUZONE, ID); 1.102 in data set [1] (excipient 10% w/v with FLUZONE, ID); 1.58 in data set [1] (excipient 58% w/v with FLUZONE, ID). Further, the erythema result in the data set on swine skin (10% W/V, 1-2 mm depth, 20-24 hours post administration, Yorkshire swine) is recorded as “mild erythema”. The tolerability result in the data set with swine skin (10%, delivered to 1-2 mm depth, Yorkshire swine) is recorded as “well tolerated”. The “Erythema Draize scores (tolerability)” value with swine skin and with guinea pig skin was “reasonably well-tolerated” throughout.
Regarding `C[C@@H]1[C@H](O)[C@@H](C)/C=C/C=C/C=C/C=C/C=C/C=C/C=C/[C@H](O[C@@H]2O[C@H](C)[C@@H](O)[C@H](N)[C@@H]2O)C[C@@H]2O[C@](O)(C[C@@H](O)C[C@@H](O)[C@H](O)CC[C@@H](O)C[C@@H](O)CC(=O)O[C@H]1C)C[C@H](O)[C@H]2C(=O)O` [Amphotericin B, reference compound], the “Trend in immune response as indicated” value in data set [1] (excipient 20 ng/ml with FLUZONE, ID) stood at 0.975; in data set [1] (excipient 60 ng/ml with FLUZONE, ID), 1.575; in data set [1] (excipient 180 ng/ml with FLUZONE, ID) it was 1.018. Besides, the “tolerated amphotericin per dose” value in the data set on swine skin (Yorkshire swine, 1.5 mm depth) is given as “up to 600 ng/100 ul”; in the data set with swine skin (setting [3]), 600 ng/100 ul. Besides, the “tolerated total amphotericin per dose” value in the data set with swine skin (Yorkshire swine, 1.5 mm depth) is on record as not above 1200 ng/200 ul; in the data set on swine skin (setting [3]), 1200 ng/200 ul. The “tolerability by Draize score analysis” value in the data set with swine skin (alone and as a mixture with FLUZONE vaccine, 1.5 mm depth, Yorkshire swine) is “well tolerated”.
For `CCO` [Ethanol], the “Trend in immune response as indicated” value in data set [1] (excipient 0.05% v/v with FLUZONE, ID) was 0.901; in data set [1] (excipient 0.15% v/v with FLUZONE, ID) it was 2.742; in data set [1] (excipient 0.45% v/v with FLUZONE, ID), 1.530.
For `NC(N)=O` [Urea], the “Trend in immune response as indicated” value in data set [1] (excipient 1% w/v with FLUZONE, ID) is 0.979; in data set [1] (excipient 5% w/v with FLUZONE, ID), 1.585; in data set [1] (excipient 20% w/v with FLUZONE, ID), 1.555.
On to `C[C@H](CCC(=O)[O-])[C@H]1CC[C@H]2[C@@H]3CC[C@@H]4C[C@H](O)CC[C@]4(C)[C@H]3C[C@H](O)[C@]12C.[Na+]` [Deoxycholate, sodium deoxycholate], for which, in data set [1] (DOC-supplemented (0.1% sodium deoxycholate) FLUZONE, ID, Balb/c mice), the “animals seroconverted 21 days after immunization” value is 5 of 5. In addition, in data set [1] (ID formulation containing 0.1% sodium deoxycholate vs IM and ID without, Balb/c mice), the median titer result is “best median titer”. Besides, the “Erythema Draize scores (tolerability)” value with swine skin and in the data set on guinea pig skin was “just above the acceptable draize score” each time. For the same compound, the skin compatibility result with swine skin (deoxycholate 0.05 and 0.1% +/- trivalent vaccine, 1.5 mm depth, Yorkshire swine) is “performed well”; in the data set with swine skin (deoxycholate 0.5% W/V and higher, 1.5 mm depth) it was “could not be tolerated”. Further, in data set [2], the “hemagglutin specific titer vs FLUZONE alone ID and FLUZONE alone IM” value is “outperformed”.
Consider `O=S([O-])O.[Na+]` [Sodium Bisulfite], for which the “Trend in immune response as indicated” value in data set [1] (excipient 0.3% w/v with FLUZONE, ID) was 0.808; in data set [1] (excipient 0.9% w/v with FLUZONE, ID), 1.833; in data set [1] (excipient 2.7% w/v with FLUZONE, ID), 2.048.
For the compound oxtoxynol 9 [Triton N-101], the “Trend in immune response as indicated” value was found to be 0.805 in data set [1] (excipient 0.13% w/v with FLUZONE, ID) and 2.035 in data set [1] (excipient 1.3% w/v with FLUZONE, ID).
